Experimental data as given in ChEMBL document CHEMBL5465560, “Selectivity Literature for EUbOPEN Chemogenomic Library” (2024).

Tests used:
[1] = biological target: T1, Mitogen-activated protein kinase 15 (Homo sapiens) (UniProt Q8TD08); test: Selectivity interaction (KinomeScan (DiscoverX)) EUB0000092b MAPK15; settings: at 10 µM
T1 sequence (whole entry): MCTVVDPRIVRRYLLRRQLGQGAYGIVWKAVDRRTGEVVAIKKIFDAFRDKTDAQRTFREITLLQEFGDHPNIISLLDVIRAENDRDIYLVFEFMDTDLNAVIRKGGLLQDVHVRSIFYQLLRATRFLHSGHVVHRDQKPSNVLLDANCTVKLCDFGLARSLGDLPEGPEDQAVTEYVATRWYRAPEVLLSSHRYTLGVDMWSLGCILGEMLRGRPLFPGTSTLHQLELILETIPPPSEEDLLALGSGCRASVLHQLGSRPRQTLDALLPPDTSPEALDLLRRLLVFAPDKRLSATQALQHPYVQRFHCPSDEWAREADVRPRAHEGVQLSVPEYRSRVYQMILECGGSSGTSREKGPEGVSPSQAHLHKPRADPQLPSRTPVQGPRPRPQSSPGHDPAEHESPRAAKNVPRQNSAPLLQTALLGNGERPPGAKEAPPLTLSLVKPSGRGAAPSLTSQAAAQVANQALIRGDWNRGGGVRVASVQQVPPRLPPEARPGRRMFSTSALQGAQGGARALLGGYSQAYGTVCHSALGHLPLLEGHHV

[2] = biological target: Vascular endothelial growth factor receptor 2 (Homo sapiens, UniProt P35968); test: Selectivity interaction (KinomeScan (DiscoverX)) EUB0000655a KDR; settings: at 10 µM
[3] = biological target: T2, Membrane-associated tyrosine- and threonine-specific cdc2-inhibitory kinase (Homo sapiens) (UniProt Q99640); test: Selectivity interaction (KinomeScan (DiscoverX)) EUB0001079a PKMYT1; settings: at 1 µM
T2 sequence (whole entry): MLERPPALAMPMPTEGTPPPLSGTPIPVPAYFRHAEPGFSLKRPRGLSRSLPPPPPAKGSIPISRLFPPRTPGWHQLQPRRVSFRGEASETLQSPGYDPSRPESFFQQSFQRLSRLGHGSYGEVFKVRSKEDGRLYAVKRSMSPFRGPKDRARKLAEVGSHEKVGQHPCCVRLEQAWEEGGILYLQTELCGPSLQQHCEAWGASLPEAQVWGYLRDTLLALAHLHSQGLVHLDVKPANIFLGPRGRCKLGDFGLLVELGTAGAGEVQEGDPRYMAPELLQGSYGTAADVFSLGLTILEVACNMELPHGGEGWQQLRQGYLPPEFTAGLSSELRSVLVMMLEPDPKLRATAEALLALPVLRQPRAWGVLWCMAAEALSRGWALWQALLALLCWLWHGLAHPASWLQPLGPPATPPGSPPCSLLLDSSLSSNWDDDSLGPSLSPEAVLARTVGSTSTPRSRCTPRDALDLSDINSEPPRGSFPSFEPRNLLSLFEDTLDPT

[4] = biological target: eIF-2-alpha kinase GCN2 (Homo sapiens) (UniProt Q9P2K8); test: Selectivity interaction (ActivX KiNativ screen (kinase selectivity in THP-1 cell lysates)) EUB0000639a EIF2AK4; format: subcellular; settings: lysate
[5] = biological target: Phosphatidylinositol 4-kinase beta (Homo sapiens, UniProt Q9UBF8); test: Selectivity interaction (Kinase panel (Invitrogen)) EUB0000639a PI4KB; settings: at 200 nM
[6] = biological target: Angiopoietin-1 receptor (Homo sapiens) (UniProt Q02763); test: Selectivity interaction (SelectScreen profiling (Invitrogen)) EUB0000607a TEK; settings: at 2 µM
[7] = biological target: T3, Cyclin-dependent kinase 11A (Homo sapiens) (UniProt Q9UQ88); test: Selectivity interaction (KinomeScan (DiscoverX)) EUB0000618a CDK11A; settings: at 10 µM
T3 sequence (whole entry): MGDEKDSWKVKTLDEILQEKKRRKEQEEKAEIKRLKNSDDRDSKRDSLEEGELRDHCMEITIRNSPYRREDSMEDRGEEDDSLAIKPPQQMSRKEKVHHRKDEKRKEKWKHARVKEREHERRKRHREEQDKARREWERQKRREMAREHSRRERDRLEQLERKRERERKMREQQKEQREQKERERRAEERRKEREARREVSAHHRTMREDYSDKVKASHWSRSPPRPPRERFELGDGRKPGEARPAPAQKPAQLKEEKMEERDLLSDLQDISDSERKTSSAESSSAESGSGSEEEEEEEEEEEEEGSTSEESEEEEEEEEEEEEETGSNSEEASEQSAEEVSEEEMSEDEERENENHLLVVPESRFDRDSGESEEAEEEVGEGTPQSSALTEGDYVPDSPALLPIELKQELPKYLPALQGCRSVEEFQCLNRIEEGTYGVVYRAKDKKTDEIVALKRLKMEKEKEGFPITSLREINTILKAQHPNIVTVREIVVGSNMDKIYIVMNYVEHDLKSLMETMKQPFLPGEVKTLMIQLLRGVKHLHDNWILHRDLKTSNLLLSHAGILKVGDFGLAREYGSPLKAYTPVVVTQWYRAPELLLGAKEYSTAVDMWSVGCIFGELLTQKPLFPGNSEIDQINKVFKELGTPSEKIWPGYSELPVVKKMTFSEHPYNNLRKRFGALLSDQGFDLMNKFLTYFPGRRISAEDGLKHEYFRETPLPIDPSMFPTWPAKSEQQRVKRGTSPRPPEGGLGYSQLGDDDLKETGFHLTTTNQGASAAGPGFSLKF

[8] = biological target: T4, Mixed lineage kinase domain-like protein (Homo sapiens) (UniProt Q8NB16); test: Selectivity interaction (ActivX KiNativ screen (ex vivo kinase selectivity in human PBMCs)) EUB0001619a MLKL; format: cell-based; settings: PBMC, at 1 µM
T4 sequence (whole entry): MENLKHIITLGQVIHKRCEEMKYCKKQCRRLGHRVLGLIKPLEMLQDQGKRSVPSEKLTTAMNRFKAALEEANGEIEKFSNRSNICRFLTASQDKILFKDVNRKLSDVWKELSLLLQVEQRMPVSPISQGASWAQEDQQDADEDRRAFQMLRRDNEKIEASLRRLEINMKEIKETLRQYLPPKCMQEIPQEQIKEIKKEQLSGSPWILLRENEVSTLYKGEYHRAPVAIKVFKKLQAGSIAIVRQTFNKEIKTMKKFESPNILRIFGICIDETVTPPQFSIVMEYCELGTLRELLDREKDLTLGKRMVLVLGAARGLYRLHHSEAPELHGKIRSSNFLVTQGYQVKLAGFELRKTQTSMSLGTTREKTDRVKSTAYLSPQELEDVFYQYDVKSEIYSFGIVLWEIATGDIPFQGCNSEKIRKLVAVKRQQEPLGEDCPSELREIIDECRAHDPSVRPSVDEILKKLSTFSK

eIF-2-alpha kinase GCN2 (Homo sapiens), sequence (Q9P2K8 whole entry): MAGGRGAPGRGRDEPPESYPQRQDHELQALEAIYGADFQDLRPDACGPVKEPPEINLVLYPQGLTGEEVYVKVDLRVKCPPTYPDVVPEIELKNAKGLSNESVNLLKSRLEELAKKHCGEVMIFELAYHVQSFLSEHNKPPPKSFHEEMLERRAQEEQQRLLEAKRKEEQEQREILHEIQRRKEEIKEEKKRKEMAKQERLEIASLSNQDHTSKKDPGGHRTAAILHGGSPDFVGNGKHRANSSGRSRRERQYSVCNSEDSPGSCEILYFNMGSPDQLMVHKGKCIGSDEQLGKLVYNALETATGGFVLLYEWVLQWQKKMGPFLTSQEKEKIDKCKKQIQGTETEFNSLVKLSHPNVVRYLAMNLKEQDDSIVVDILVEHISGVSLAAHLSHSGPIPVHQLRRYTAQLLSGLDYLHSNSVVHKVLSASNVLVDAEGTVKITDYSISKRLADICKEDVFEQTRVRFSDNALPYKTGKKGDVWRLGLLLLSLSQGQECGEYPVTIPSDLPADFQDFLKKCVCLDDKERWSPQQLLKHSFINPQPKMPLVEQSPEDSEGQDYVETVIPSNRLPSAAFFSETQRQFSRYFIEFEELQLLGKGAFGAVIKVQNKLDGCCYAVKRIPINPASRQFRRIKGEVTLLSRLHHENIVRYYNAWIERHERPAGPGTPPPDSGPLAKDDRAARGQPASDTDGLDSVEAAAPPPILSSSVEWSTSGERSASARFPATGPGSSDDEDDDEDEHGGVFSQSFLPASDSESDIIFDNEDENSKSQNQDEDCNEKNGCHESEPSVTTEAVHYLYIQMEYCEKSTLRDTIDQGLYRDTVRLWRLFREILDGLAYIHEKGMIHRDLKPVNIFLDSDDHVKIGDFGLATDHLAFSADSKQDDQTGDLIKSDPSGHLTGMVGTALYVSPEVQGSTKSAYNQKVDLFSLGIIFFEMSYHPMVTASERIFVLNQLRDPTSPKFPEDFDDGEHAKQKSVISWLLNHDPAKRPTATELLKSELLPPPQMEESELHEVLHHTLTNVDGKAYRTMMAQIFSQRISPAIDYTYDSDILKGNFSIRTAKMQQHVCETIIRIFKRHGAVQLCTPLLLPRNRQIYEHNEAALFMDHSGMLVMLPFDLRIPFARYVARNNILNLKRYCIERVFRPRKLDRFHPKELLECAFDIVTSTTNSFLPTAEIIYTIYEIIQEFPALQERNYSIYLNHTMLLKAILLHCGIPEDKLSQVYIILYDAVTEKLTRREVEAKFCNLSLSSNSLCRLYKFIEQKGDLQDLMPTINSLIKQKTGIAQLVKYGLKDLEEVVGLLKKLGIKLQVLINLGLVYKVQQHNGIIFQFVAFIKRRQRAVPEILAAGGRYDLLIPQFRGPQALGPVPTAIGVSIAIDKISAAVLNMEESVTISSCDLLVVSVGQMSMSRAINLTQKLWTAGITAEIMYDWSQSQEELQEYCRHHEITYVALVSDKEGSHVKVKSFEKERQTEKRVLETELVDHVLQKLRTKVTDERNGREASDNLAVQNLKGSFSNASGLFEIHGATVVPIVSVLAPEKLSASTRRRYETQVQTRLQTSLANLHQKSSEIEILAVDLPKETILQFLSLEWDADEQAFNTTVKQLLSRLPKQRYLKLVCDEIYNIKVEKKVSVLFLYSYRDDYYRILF
Phosphatidylinositol 4-kinase beta, sequence (Q9UBF8 2-816 limits assumed): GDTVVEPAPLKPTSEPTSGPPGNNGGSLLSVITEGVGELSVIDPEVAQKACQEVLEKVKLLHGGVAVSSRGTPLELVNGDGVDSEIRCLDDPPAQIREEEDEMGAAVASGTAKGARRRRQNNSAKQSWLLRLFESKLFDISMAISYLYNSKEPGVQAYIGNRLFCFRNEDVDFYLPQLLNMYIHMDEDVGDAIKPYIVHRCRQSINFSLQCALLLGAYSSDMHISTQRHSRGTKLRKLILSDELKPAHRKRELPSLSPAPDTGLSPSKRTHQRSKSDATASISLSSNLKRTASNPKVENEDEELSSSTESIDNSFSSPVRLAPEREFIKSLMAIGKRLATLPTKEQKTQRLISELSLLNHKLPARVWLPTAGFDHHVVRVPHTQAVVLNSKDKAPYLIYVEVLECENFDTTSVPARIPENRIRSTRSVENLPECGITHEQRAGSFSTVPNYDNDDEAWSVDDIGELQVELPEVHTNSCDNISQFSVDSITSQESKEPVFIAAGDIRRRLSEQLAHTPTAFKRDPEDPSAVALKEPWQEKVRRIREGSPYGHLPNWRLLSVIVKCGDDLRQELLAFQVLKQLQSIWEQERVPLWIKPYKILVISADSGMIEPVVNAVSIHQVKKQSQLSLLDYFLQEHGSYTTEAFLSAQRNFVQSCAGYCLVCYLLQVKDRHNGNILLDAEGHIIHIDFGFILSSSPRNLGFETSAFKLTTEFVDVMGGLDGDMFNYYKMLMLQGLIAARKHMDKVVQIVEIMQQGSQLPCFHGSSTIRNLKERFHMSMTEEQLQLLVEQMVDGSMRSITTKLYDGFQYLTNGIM
Vascular endothelial growth factor receptor 2, sequence (P35968 whole entry): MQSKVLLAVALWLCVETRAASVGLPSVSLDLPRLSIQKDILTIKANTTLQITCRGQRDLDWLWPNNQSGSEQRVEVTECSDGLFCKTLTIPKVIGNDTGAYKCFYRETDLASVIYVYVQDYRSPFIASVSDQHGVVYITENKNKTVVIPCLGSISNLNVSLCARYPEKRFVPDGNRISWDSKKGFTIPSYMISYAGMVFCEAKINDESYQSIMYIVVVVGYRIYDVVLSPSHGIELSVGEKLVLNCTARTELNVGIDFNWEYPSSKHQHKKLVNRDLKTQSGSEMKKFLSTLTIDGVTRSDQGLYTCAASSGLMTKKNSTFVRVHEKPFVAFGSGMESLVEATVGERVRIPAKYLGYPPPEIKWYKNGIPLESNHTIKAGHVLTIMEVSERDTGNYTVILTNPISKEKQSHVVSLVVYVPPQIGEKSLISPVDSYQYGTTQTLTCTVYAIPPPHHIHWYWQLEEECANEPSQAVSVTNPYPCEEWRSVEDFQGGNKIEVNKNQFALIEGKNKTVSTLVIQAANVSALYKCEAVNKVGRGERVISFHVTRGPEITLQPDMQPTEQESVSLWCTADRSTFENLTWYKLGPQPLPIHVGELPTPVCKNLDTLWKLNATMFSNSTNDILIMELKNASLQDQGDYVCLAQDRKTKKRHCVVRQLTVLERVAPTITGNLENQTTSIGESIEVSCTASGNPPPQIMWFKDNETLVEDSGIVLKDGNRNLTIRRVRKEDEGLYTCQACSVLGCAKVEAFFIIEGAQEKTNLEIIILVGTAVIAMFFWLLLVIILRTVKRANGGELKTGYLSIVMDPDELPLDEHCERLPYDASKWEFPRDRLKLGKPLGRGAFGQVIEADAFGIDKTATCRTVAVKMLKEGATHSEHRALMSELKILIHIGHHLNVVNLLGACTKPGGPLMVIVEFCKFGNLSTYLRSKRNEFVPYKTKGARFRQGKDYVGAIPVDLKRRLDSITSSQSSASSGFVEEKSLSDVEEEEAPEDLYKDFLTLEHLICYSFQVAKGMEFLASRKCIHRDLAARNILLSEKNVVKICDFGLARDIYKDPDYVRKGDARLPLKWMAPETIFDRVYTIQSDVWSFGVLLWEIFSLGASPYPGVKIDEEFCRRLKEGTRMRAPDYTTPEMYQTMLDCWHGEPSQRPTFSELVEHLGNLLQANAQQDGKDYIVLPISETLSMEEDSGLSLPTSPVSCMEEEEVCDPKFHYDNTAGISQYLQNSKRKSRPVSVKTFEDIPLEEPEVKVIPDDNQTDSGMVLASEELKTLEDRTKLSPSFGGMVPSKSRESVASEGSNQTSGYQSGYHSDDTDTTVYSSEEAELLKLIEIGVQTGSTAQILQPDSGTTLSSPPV
Angiopoietin-1 receptor (Homo sapiens), sequence (Q02763 whole entry): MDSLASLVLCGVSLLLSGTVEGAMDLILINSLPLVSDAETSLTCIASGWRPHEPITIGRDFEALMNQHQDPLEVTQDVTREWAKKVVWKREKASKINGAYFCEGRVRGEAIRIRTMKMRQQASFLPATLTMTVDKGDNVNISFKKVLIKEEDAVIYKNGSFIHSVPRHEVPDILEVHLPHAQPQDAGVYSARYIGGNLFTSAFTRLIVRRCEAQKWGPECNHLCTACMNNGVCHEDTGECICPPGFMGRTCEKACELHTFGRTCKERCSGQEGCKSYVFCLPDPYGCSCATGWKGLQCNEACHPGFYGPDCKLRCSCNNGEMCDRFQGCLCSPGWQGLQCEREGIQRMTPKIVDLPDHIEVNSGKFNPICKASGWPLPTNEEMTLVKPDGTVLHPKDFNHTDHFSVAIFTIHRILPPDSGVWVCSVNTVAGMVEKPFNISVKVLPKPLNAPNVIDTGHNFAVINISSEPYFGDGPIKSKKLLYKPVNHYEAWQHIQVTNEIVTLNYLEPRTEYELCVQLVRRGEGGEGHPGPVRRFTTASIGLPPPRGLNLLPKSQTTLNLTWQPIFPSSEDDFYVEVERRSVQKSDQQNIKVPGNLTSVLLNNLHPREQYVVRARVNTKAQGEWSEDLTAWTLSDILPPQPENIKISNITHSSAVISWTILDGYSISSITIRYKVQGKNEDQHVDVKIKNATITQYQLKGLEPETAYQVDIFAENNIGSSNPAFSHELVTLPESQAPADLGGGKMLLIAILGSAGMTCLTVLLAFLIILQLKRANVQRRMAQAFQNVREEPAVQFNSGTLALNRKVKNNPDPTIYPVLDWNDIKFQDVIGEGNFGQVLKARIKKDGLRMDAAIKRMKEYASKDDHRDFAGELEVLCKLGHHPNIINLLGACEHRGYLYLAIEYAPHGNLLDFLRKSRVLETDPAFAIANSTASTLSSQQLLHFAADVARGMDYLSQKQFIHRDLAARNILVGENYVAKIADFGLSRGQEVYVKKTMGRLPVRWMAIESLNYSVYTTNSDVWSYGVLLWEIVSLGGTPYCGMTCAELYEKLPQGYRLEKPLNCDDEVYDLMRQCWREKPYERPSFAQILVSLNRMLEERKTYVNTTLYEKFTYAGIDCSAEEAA

## CCC(=O)N1CCN(c2ccc(-n3c(=O)ccc4cnc5ccc(-c6cnc7ccccc7c6)cc5c43)cc2C(F)(F)F)CC1
[1]
  % of control: 79%

## CN(C)CCOc1ccc(-c2nc(-c3ccncc3)c(-c3ccc4c(c3)CC/C4=N\O)[nH]2)cc1
[2]
  % of control: 100%

## Nc1cnc(N2CCc3cc(S(=O)(=O)Nc4c(F)cc(Cl)cc4F)cc(N4CCCC4=O)c32)nc1 [TP-020n]
[3]
  % of control: 99%

## CC[C@@H]1[C@H](F)C(=O)N[C@@H]1COc1nccc2cc(C(N)=O)c(OC)cc12 [ZIMLOVISERTIB]
[4]; at 0.01 µM
  % of inhibition: -4.6%
[4]; at 0.04 µM
  % of inhibition: -11.3%
[4]; at 0.2 µM
  % of inhibition: -14.4%
[4]; at 1 µM
  % of inhibition: 13.9%
[4]; at 5 µM
  % of inhibition: 12.4%
[5]
  % of inhibition: -0.901%

## CNC(=O)Nc1ccc(-c2nc(N3CC4CCC(C3)O4)c3cnn(C4CCC5(CC4)OCCO5)c3n2)cc1
[6]
  % of inhibition: 10%

## O[C@H]1CC[C@H](Nc2ncc3nc(Nc4c(F)cc(F)cc4F)n([C@H]4CCOC4)c3n2)CC1
[7]
  % of control: 98%

## N#Cc1cccc(-c2c[nH]c3ncnc(N4CCOCC4)c23)c1
[8]
  % of inhibition: 15%
